# Assay results: ChEMBL document CHEMBL4359906, “Design and synthesis of new N-terminal fatty acid modified-antimicrobial peptide analogues with potent in vitro biological activity” (Eur J Med Chem, 2019)
# The source made the active and inactive calls. No cut-off for these calls is given here.
# Experiments:
# [1] = test system: Escherichia coli; assay: Antimicrobial activity against Escherichia coli ATCC 25922 preincubated for 1 hr in presence of 10% mouse serum and measured after 18 hrs by CLSI-based broth microdilution assay (reference value: 4 microM); type: functional
# [2] = test system: Escherichia coli; assay: Antibacterial activity against Escherichia coli ATCC 25922 after 18 hrs in presence of MgCl2 by CLSI based broth microdilution method (reference value: 4 microM); type: functional; settings: ATCC 25922, 18 h
# [3] = test system: Staphylococcus aureus; assay: Antibacterial activity against Staphylococcus aureus ATCC 25923 after 18 hrs in presence of KCl by CLSI based broth microdilution method (reference value: 16 microM); type: functional; settings: ATCC 25923, 18 h
# [4] = test system: Staphylococcus aureus; assay: Antibacterial activity against Staphylococcus aureus ATCC 25923 after 18 hrs in presence of MgCl2 by CLSI based broth microdilution method (reference value: 16 microM); type: functional; settings: ATCC 25923, 18 h
# [5] = test system: Escherichia coli; assay: Antimicrobial activity against Escherichia coli ATCC 25922 preincubated for 6 hrs in presence of 10% mouse serum and measured after 18 hrs by CLSI-based broth microdilution assay (reference value: 4 microM); type: functional
# [6] = test system: Staphylococcus aureus; assay: Antibacterial activity against Staphylococcus aureus ATCC 25923 after 18 hrs in presence of FeCl3 by CLSI based broth microdilution method (reference value: 16 microM); type: functional; settings: ATCC 25923, 18 h
# [7] = test system: Escherichia coli; assay: Antibacterial activity against Escherichia coli ATCC 25922 after 18 hrs in presence of FeCl3 by CLSI based broth microdilution method (reference value: 4 microM); type: functional; settings: ATCC 25922, 18 h
# [8] = test system: Escherichia coli; assay: Antibacterial activity against Escherichia coli ATCC 25922 after 18 hrs in presence of NaCl by CLSI based broth microdilution method (reference value: 4 microM); type: functional; settings: ATCC 25922, 18 h
# [9] = test system: RAW264.7; assay: Cytotoxicity against mouse RAW264.7 cells assessed as cell proliferation at 16 uM after 1 hr by MTT assay; type: cell-based; settings: raw264.7, 1 h
# [10] = test system: Staphylococcus aureus; assay: Antibacterial activity against Staphylococcus aureus ATCC 25923 after 18 hrs in presence of NaCl by CLSI based broth microdilution method (reference value: 128 microM); type: functional; settings: ATCC 25923, 18 h
# [11] = test system: Staphylococcus aureus; assay: Antibacterial activity against Staphylococcus aureus ATCC 25923 after 18 hrs in presence of MgCl2 by CLSI based broth microdilution method (reference value: 128 microM); type: functional; settings: ATCC 25923, 18 h
# [12] = test system: DNA; assay: Binding affinity to Escherichia coli ATCC 25922 genomic DNA at 0.5 x MIC after 30 mins by agarose gel electrophoresis; type: nucleic-acid assay
# [13] = test system: Staphylococcus aureus; assay: Antibacterial activity against Staphylococcus aureus ATCC 25923 after 18 hrs in presence of KCl by CLSI based broth microdilution method (reference value: 128 microM); type: functional; settings: ATCC 25923, 18 h
# [14] = Cytotoxicity against mouse RAW264.7 cells assessed as cell proliferation at 16 uM after 1 hr by MTT assay relative to control; type: cell-based; settings: read-out: Activity
# [15] = test system: Escherichia coli; assay: Antibacterial activity against Escherichia coli ATCC 25922 after 18 hrs in presence of KCl by CLSI based broth microdilution method (reference value: 64 microM); type: functional; settings: ATCC 25922, 18 h
# [16] = test system: Staphylococcus aureus; assay: Antibacterial activity against Staphylococcus aureus ATCC 25923 after 18 hrs in presence of KCl by CLSI based broth microdilution method (reference value: 32 microM); type: functional; settings: ATCC 25923, 18 h
# [17] = test system: Staphylococcus aureus; assay: Antibacterial activity against Staphylococcus aureus ATCC 25923 after 18 hrs in presence of FeCl3 by CLSI based broth microdilution method (reference value: 32 microM); type: functional; settings: ATCC 25923, 18 h
# [18] = test system: Staphylococcus aureus; assay: Antibacterial activity against Staphylococcus aureus ATCC 25923 after 18 hrs in presence of NaCl by CLSI based broth microdilution method (reference value: 32 microM); type: functional; settings: ATCC 25923, 18 h
# [19] = test system: Escherichia coli; assay: Antibacterial activity against Escherichia coli ATCC 25922 after 18 hrs in presence of NaCl by CLSI based broth microdilution method (reference value: 64 microM); type: functional; settings: ATCC 25922, 18 h
# [20] = test system: Escherichia coli; assay: Antimicrobial activity against Escherichia coli ATCC 25922 preincubated for 1 hr in presence of 10% mouse serum and measured after 18 hrs by CLSI-based broth microdilution assay (reference value: 64 microM); type: functional
# [21] = test system: DNA; assay: Binding affinity to Escherichia coli ATCC 25922 genomic DNA at 4 x MIC after 30 mins by agarose gel electrophoresis; type: nucleic-acid assay
# [22] = test system: Escherichia coli; assay: Antimicrobial activity against Escherichia coli ATCC 25922 at 1 mM preincubated for 6 hrs in presence of 200 ug/ml chymotrypsin and measured after 18 hrs by microplate reader analysis; type: functional, organism-based
# [23] = test system: Escherichia coli; assay: Antimicrobial activity against Escherichia coli ATCC 25922 preincubated for 6 hrs in presence of 10% mouse serum and measured after 18 hrs by CLSI-based broth microdilution assay (reference value: 64 microM); type: functional
# [24] = test system: Escherichia coli; assay: Antibacterial activity against Escherichia coli ATCC 25922 after 18 hrs in presence of MgCl2 by CLSI based broth microdilution method (reference value: 64 microM); type: functional; settings: ATCC 25922, 18 h
# [25] = test system: DNA; assay: Binding affinity to Escherichia coli ATCC 25922 genomic DNA at 8 x MIC after 30 mins by agarose gel electrophoresis; type: nucleic-acid assay
# [26] = test system: Escherichia coli; assay: Antimicrobial activity against Escherichia coli ATCC 25922 at 1 mM preincubated for 6 hrs in presence of 2000 ug/ml chymotrypsin and measured after 18 hrs by microplate reader analysis; type: functional, organism-based
# [27] = test system: Staphylococcus aureus; assay: Antibacterial activity against Staphylococcus aureus ATCC 25923 after 18 hrs in presence of NaCl by CLSI based broth microdilution method (reference value: 64 microM); type: functional; settings: ATCC 25923, 18 h
# [28] = test system: Staphylococcus aureus; assay: Antibacterial activity against Staphylococcus aureus ATCC 25923 after 18 hrs in presence of MgCl2 by CLSI based broth microdilution method (reference value: 64 microM); type: functional; settings: ATCC 25923, 18 h
# [29] = test system: Staphylococcus aureus; assay: Antibacterial activity against Staphylococcus aureus ATCC 25923 after 18 hrs in presence of KCl by CLSI based broth microdilution method (reference value: 64 microM); type: functional; settings: ATCC 25923, 18 h
# [30] = test system: Escherichia coli; assay: Antimicrobial activity against Escherichia coli ATCC 25922 at 1 mM preincubated for 6 hrs in presence of 20 ug/ml chymotrypsin and measured after 18 hrs by microplate reader analysis; type: functional, organism-based
# [31] = test system: Staphylococcus aureus; assay: Antibacterial activity against Staphylococcus aureus ATCC 25923 after 18 hrs in presence of KCl by CLSI based broth microdilution method (reference value: 4 microM); type: functional; settings: ATCC 25923, 18 h
# [32] = Cytotoxicity against mouse RAW264.7 cells assessed as cell proliferation at 8 uM after 1 hr by MTT assay relative to control; type: cell-based; settings: read-out: Activity
# [33] = test system: Pseudomonas aeruginosa; assay: Antibiofilm activity against Pseudomonas aeruginosa ATCC 27853 at 1 to 2 times of MIC after 24 hrs by crystal violet staining based assay; type: functional, organism-based
# [34] = test system: Staphylococcus aureus; assay: Antibacterial activity against Staphylococcus aureus ATCC 25923 after 18 hrs in presence of NaCl by CLSI based broth microdilution method (reference value: 4 microM); type: functional; settings: ATCC 25923, 18 h
# [35] = test system: Staphylococcus aureus; assay: Antibacterial activity against Staphylococcus aureus ATCC 25923 after 18 hrs in presence of FeCl3 by CLSI based broth microdilution method (reference value: 4 microM); type: functional; settings: ATCC 25923, 18 h
smiles,measurement,setting,value
CCCCCCCC(=O)NC(Cc1cn(CCCC[C@H](NC(C)=O)C(=O)NCC(=O)N[C@@H](CC(C)C)C(=O)N[C@@H](CC(C)C)C(=O)N[C@H](CCCCN)C(=O)N[C@@H](CCCNC(=N)N)C(=O)N[C@H](C(=O)N[C@H](CCCCN)C(=O)N[C@H](C(=O)N[C@@H](CC(C)C)C(=O)N[C@@H](CC(C)C)C(N)=O)[C@@H](C)O)[C@@H](C)CC)nn1)C(=O)NCC(=O)N[C@@H](CC(C)C)C(=O)N[C@@H](CC(C)C)C(=O)N[C@H](CCCCN)C(=O)N[C@@H](CCCNC(=N)N)C(=O)N[C@H](C(=O)N[C@H](CCCCN)C(=O)N[C@H](C(=O)N[C@@H](CC(C)C)C(=O)N[C@@H](CC(C)C)C(N)=O)[C@@H](C)O)[C@@H](C)CC (stereo not given in full),MIC,[1],8 µM
same,MIC,[2],16 µM
same,MIC,[3],16 µM
same,MIC,[4],16 µM
same,MIC,[5],16 µM
same,MIC,[6],8 µM
same,MIC,[7],4 µM
same,MIC,[8],8 µM
same,Activity,[9],Toxic
CCCC(=O)NC(Cc1cn(CCCC[C@H](NC(C)=O)C(=O)NCC(=O)N[C@@H](CC(C)C)C(=O)N[C@@H](CC(C)C)C(=O)N[C@H](CCCCN)C(=O)N[C@@H](CCCNC(=N)N)C(=O)N[C@H](C(=O)N[C@H](CCCCN)C(=O)N[C@H](C(=O)N[C@@H](CC(C)C)C(=O)N[C@@H](CC(C)C)C(N)=O)[C@@H](C)O)[C@@H](C)CC)nn1)C(=O)NCC(=O)N[C@@H](CC(C)C)C(=O)N[C@@H](CC(C)C)C(=O)N[C@H](CCCCN)C(=O)N[C@@H](CCCNC(=N)N)C(=O)N[C@H](C(=O)N[C@H](CCCCN)C(=O)N[C@H](C(=O)N[C@@H](CC(C)C)C(=O)N[C@@H](CC(C)C)C(N)=O)[C@@H](C)O)[C@@H](C)CC (stereo not given in full),MIC,[10],> 128 µM
same,MIC,[11],> 128 µM
same,Activity,[12],inactive
same,MIC,[13],128 µM
CCCCCCCCCC(=O)NCC(=O)N[C@@H](CC(C)C)C(=O)N[C@@H](CC(C)C)C(=O)N[C@H](CCCCN)C(=O)N[C@@H](CCCNC(=N)N)C(=O)N[C@H](C(=O)N[C@H](CCCCN)C(=O)N[C@H](C(=O)N[C@@H](CC(C)C)C(=O)N[C@@H](CC(C)C)C(N)=O)[C@@H](C)O)[C@@H](C)CC,"viability at 1 h, 16 µM",[14],< 80%
CCCCCCCC(=O)NCC(=O)N[C@@H](CC(C)C)C(=O)N[C@@H](CC(C)C)C(=O)N[C@H](CCCCN)C(=O)N[C@@H](CCCNC(=N)N)C(=O)N[C@H](C(=O)N[C@H](CCCCN)C(=O)N[C@H](C(=O)N[C@@H](CC(C)C)C(=O)N[C@@H](CC(C)C)C(N)=O)[C@@H](C)O)[C@@H](C)CC,MIC,[15],32 µM
same,MIC,[16],64 µM
same,MIC,[17],32 µM
same,MIC,[18],128 µM
same,MIC,[19],64 µM
same,MIC,[20],64 µM
same,Activity,[21],Active
same,Activity,[22],Active
same,MIC,[23],64 µM
same,MIC,[24],64 µM
CCCCCCCCCCCC(=O)NC(Cc1cn(CCCC[C@H](NC(C)=O)C(=O)NCC(=O)N[C@@H](CC(C)C)C(=O)N[C@@H](CC(C)C)C(=O)N[C@H](CCCCN)C(=O)N[C@@H](CCCNC(=N)N)C(=O)N[C@H](C(=O)N[C@H](CCCCN)C(=O)N[C@H](C(=O)N[C@@H](CC(C)C)C(=O)N[C@@H](CC(C)C)C(N)=O)[C@@H](C)O)[C@@H](C)CC)nn1)C(=O)NCC(=O)N[C@@H](CC(C)C)C(=O)N[C@@H](CC(C)C)C(=O)N[C@H](CCCCN)C(=O)N[C@@H](CCCNC(=N)N)C(=O)N[C@H](C(=O)N[C@H](CCCCN)C(=O)N[C@H](C(=O)N[C@@H](CC(C)C)C(=O)N[C@@H](CC(C)C)C(N)=O)[C@@H](C)O)[C@@H](C)CC (stereo not given in full),Activity,[25],inactive
same,Activity,[26],Active
CCCCCC(=O)NC(Cc1cn(CCCC[C@H](NC(C)=O)C(=O)NCC(=O)N[C@@H](CC(C)C)C(=O)N[C@@H](CC(C)C)C(=O)N[C@H](CCCCN)C(=O)N[C@@H](CCCNC(=N)N)C(=O)N[C@H](C(=O)N[C@H](CCCCN)C(=O)N[C@H](C(=O)N[C@@H](CC(C)C)C(=O)N[C@@H](CC(C)C)C(N)=O)[C@@H](C)O)[C@@H](C)CC)nn1)C(=O)NCC(=O)N[C@@H](CC(C)C)C(=O)N[C@@H](CC(C)C)C(=O)N[C@H](CCCCN)C(=O)N[C@@H](CCCNC(=N)N)C(=O)N[C@H](C(=O)N[C@H](CCCCN)C(=O)N[C@H](C(=O)N[C@@H](CC(C)C)C(=O)N[C@@H](CC(C)C)C(N)=O)[C@@H](C)O)[C@@H](C)CC (stereo not given in full),MIC,[27],128 µM
same,MIC,[28],64 µM
same,MIC,[29],64 µM
same,Activity,[30],Active
CCCCCCCCCCCC(=O)NCC(=O)N[C@@H](CC(C)C)C(=O)N[C@@H](CC(C)C)C(=O)N[C@H](CCCCN)C(=O)N[C@@H](CCCNC(=N)N)C(=O)N[C@H](C(=O)N[C@H](CCCCN)C(=O)N[C@H](C(=O)N[C@@H](CC(C)C)C(=O)N[C@@H](CC(C)C)C(N)=O)[C@@H](C)O)[C@@H](C)CC,MIC,[31],4 µM
same,"viability at 1 h, 8 µM",[32],< 80%
same,inhibition,[33],Active
same,MIC,[34],4 µM
same,MIC,[35],8 µM
